According to US7097825B2, “Methods and reagents to acquire MRI signals and images” (Allos Therapeutics, Inc., priority 2001, dated 2006):

Tests used:
hemoglobin = target: T1, hemoglobin (Mus musculus, UniProt P01942+P02088); settings: 20–40 min after 300 mg/kg RSR13 injection into mice; cited from earlier work
T1 construct: after a 300 mg/kg RSR13 injection into mice; host or cells: blood (erythrocytes) of mice injected with RSR13; endogenous hemoglobin

[1] = system: NCI-H460 human large cell lung carcinoma xenografts; test: Tumor growth delay, RSR13 and/or radiation; type: in vivo, athymic nude mice; settings: for Tumor growth delay: n=4
Description: (§1) NCI-H460 human large cell lung carcinoma cells were obtained from the American Type Culture Collection (ATCC). H460 cells were cultured at 37° C., 5% CO2 in RPMI 1640 medium (Gibco BRL, Gaithersburg, Md.)+10% fetal bovine serum (Gibco)+50 U/ml penicillin (Gibco)+50 μg/ml streptomycin (Gibco). Cells were routinely passaged using 0.05% trypsin-EDTA. Human NIH-H460 cells were used as a xenograft model in female athymic nude mice (nu/nu, 5–6 weeks old). Cells at 80% confluence were trypsinized, resuspended in growth medium, and counted. Cells were then centrifuged and resuspended in 37° C. PBS at 2×10^7 cells/ml. A suspension of 2×10^6 cells in a 0.1 ml volume was injected subcutaneously (s.c.) into the left posterior flank. Tumors were allowed to grow for 2 weeks (about 1 cm^3) before imaging, or for 7 days prior to treatment with RSR13 and radiation.
Tumors on the flanks of mice were irradiated using an Eldorado-8 ^60Co γ irradiator (Neutron Products, Inc., Dickerson, Md.). The dose rate was 1.18 Gy/min, at an SSD of 56.5 cm. The non-tumor parts of mice were shielded using lead blocks. Mice were irradiated using restraining devices constructed from 50 ml conical polyethylene tubes taped to a Styrofoam pad. Mice were irradiated 30 min after administration of RSR13 (given by intraperitoneal injection).
Tumors were measured three times weekly in two perpendicular dimensions using Vernier calipers. Volumes were calculated using the formula: volume=0.4* ab^2 (a=long dimension, b=short dimension). Treatment began when tumors reached an average volume of about 0.3 cm^3. Growth delay time (GD) was calculated as the time for treated tumors to double in volume minus the time for control tumors to double in volume, with t=0 defined as the first day of treatment. Treatment groups consisted of either untreated control, radiation alone, RSR13 alone, or RSR13 plus radiation. Each treatment group contained four mice.
A paired t-test was applied to test the differences between baseline and follow-up time points. […]

[2] = system: NCI-H460 human large cell lung carcinoma xenografts; test: BOLD MRI signal ratio in tumors after RSR13 injection; type: in vivo, athymic nude mice; settings: for Change in BOLD MRI signal: (Intensity (t = 30 min)/Intensity (t = 0)): 30 min after injection, preliminary
Description: as §1
Mice with tumors were anesthetized with 0.05 cc of a ketamine (100 mg/ml) and acepromezine (2.5 mg/0.25 ml) cocktail (induction anesthesia). A 24G angiocath, attached to a syringe with the appropriate amount of RSR13, was then placed and secured intraperitoneally (i.p.). Mice were placed in a pre-warmed anesthesia chamber and the surface coil was positioned over the tumor. The entire assembly was then placed into a Varian 4.7T small bore MR scanner. The anesthesia chamber was then infused with a mixture of 98.5% room air and 1.5% isoflurane (maintenance anesthesia) at a rate of 1.5 L/min throughout the experiment. After scout images were obtained to localize the tumor, serial gradient echo images were obtained at ten-minute intervals over a total of 60 minutes. RSR13 was supplied as a 20-mg/ml stock solution, which was diluted with sterile phosphate-buffered saline (PBS) prior to experiments to achieve the desired dose (mg/kg) per […]. At the start of acquisition of the second image (“time 0”), a dose of RSR13 was injected i.p. RSR13 doses were administered in 0.3 ml volumes; control mice were given injections of saline. Preliminary experiments were performed to optimize the BOLD contrast, first by imaging mouse tumors without any drug, and then by administering different doses of RSR13. A dose of 200 mg/kg was then chosen for further studies. Parameters for BOLD-MRI scans were chosen to maximize sensitivity to oxygen dependent changes in the relaxation parameter T2*. The following MRI parameters were used: TR=520 ms, TE=27 ms, flip angle=45°, 18 signal averages, 230 μm spatial resolution, matrix=128×128, bandwidth=37.4 kHz, field of view=3×3 cm. Color maps indicating percent increase in signal relative to the baseline gradient echo image were created for each image. Color maps were overlaid on corresponding spin echo images for anatomic reference. After images were acquired, each individual tumor (at t=30 min.) was examined slice by slice, and a single slice which was most representative of the entire tumor was chosen. Within each representative slice, a 15×15-pixel regions of interest (ROI) was drawn around the area of maximum signal intensity (about 25% of the tumor slice area). The voxel size was 0.23 mm×0.23 mm×1 mm; thus the slice thickness was 1 mm. The same slice and ROI were then used to calculate the signal ratio corresponding to the other times for the same tumor. The following signal ratio was calculated: Intensity (t)/Intensity (t=0 min). Based on the signal parameters listed above, the MRI signal intesnsity is proportional to the MR relaxation time, T*2, which is linearly related to the level of oxygen saturation. See, e.g. Ogawa, et al., Magn. Reson. Med. 29:205–10 (1993). Images were analyzed in a blind fashion in the dose dependence studies, without knowledge of the drug doses used, to eliminate observer bias.
A paired t-test was applied to test the differences between baseline and follow-up time points. All tests of significance were two-sided, and differences were considered statistically significant when the P value was≦0.05. […]

tumors = settings: previous studies, fractionated radiotherapy; cited from earlier work

T1 sequence (P01942 2-142 limits assumed): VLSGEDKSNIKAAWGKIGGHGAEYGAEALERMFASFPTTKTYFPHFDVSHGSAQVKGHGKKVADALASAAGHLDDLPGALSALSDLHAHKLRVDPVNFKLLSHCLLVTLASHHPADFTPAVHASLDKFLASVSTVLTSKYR
T1 sequence (P02088 2-147 limits assumed): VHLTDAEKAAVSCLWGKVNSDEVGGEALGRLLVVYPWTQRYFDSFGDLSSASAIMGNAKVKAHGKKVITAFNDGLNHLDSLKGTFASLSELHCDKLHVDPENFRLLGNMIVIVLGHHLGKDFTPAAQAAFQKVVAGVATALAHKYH

## Cc1cc(C)cc(NC(=O)Cc2ccc(OC(C)(C)C(=O)O)cc2)c1 [RSR13, 2-[4-(((3,5-dimethylanilino)carbonyl)methyl)phenoxy]-2-methylpropionic acid]
hemoglobin
  Mean increase of pO2 at 50% hemoglobin saturation: 53%
[1]; 6.6/2.4, 200 mg/kg, 10 Gy 30 min later
  Enhancement factor (growth delay RSR13 plus radiation / radiation alone): 2.8
[1]; RSR13 200 mg/kg i.p. plus radiation 10 Gy given 30 min later, radiation alone 2.4 days
  Tumor growth delay: 6.6 days
[1]; RSR13 alone, 200 mg/kg i.p.
  Tumor growth delay: did not affect tumor growth delay
[2]; 200 mg/kg i.p., n=8, P=0.04
  Increase of MRI signal ratio between t=10 and 30 min: 14%
[2]; 200 mg/kg i.p., n=8, P=0.05
  Increase of MRI signal ratio between t=10 and 20 min: 9%
[2]; 200 mg/kg i.p., n=8, P≧0.05
  Changes of MRI signal ratio between t=10 and 40, 50, or 60 min: not statistically significant
[2]; 200 mg/kg i.p., n=8 mice
  Time of maximum MRI signal ratio after RSR13 injection: 30 min
[2]; FIG. 9, H460 tumor ROI 1, about two hours after time zero injection
  Increase in signal in tumor tissue ROI, normalized to signal at time zero: ~20%
[2]; RSR13 100 mg/kg i.p., 1 mouse (Mouse B)
  Change in BOLD MRI signal: (Intensity (t = 30 min)/Intensity (t = 0)): 1.13
[2]; RSR13 200 mg/kg i.p., 1 mouse (Mouse C)
  Change in BOLD MRI signal: (Intensity (t = 30 min)/Intensity (t = 0)): 1.20
[2]; RSR13 300 mg/kg i.p., 1 mouse (Mouse D)
  Change in BOLD MRI signal: (Intensity (t = 30 min)/Intensity (t = 0)): 1.19
[2]; doses 0, 100, 200, 300 mg/kg, t=30 min
  Dose at which the signal ratio reached a plateau: 200 mg/kg
tumors
  Enhancement ratios (dose modifying factors): 1.3–1.8
